Measured values from US8815590B2, “Composition and method for differentiation of human embryonic stem cells” (Stem Cells for Safer Medicines Limited, priority 2009, dated 2014).

Columns and labels:
Human ESCs [SHEF3] = experiment: Flow cytometry of pluripotency surface markers Tra-1-60 and SSEA4 in treated human ESCs; format: cell-based
Method: (A) Images show typical colonies formed following the indicated treatments. The scale bars represent 1 mm. (B) Histogram plots of ESCs analysed by flow cytometry following immunostaining with antibodies against the pluripotency markers Tra-1-60 or SSEA4. (C) RNA was extracted from the cells and RT-PCR analyses performed using primers specific to the pluripotency genes OCT4 and NANOG and to the house-keeping gene β-ACTIN. (D) Western blot analysis was performed on protein extracted from the cells and immunoblotted with antibodies specific to Oct4. Blots were stripped and reprobed with anti-Gapdh antibodies to assess equal loading. […] SHEF3 cells were treated with the indicated concentration of 1O for 7 days. Images show typical colony morphology. (F) Histogram plots of ESCs analysed by flow cytometry following staining with Tra-1-60 and SSEA4 antibodies. Analysis of percent positive cells and mean fluorescent intensity are indicated on the plots. (G) RT PCR analysis for the expression of OCT4 and NANOG. Bands for each of the genes were from the same gel with intervening samples removed. (H) Western blot analysis of OCT4 protein expression. Proteins bands were from the same immunoblot with intervening samples removed.
SHEF1 and SHEF3 human ESCs were obtained from the UKSCB and cultured as outlined in their protocols. Briefly, ESCs were maintained on mitomycin C-inactivated mouse embryonic fibroblast (MEF) feeder layers in KnockOut Dulbecco's modified Eagle's medium (KO DMEM) (Invitrogen) supplemented with 20% (vol/vol) KO serum replacement (KOSR; Invitrogen), 1 mM non-essential amino acids (NEAA; Invitrogen), 1 mM glutamine (Invitrogen), 0.1 mM 2-mercaptoethanol (BioRad), penicillin/streptomycin, and 4 ng/ml recombinant human FGF2 (Peprotech). Cultures were passage using 1 mg/ml collagenase at a ratio of 1:8 to 1:12 every 7 days. Cultures were transferred to a feeder-free, chemically defined culture system on ESC-qualified Matrigel® (BD) coated plates in mTeSR1® (Stem Cell Technologies) media according to Stem Cell Technologies' protocol.
ESCs were trypsinised (0.05% Trypsin-EDTA) for 10 minutes at 37° C. and resuspended in PBS containing 2% (v/v) FBS (FBS/PBS). […] Cells were washed and stained with secondary fluorescein isothiocyanate (FITC)-conjugated antibodies (SIGMA) for a further 30 minutes, if required. Flow cytometry was performed using a FACSCanto cytometer (Becton Dickenson) and the data were analysed with FACSDiva software. Dead cells were excluded for analyses based on forward and side scatter parameters.

ESCs [SHEF1] = experiment: RT-PCR of Activin/Nodal pathway and differentiation marker genes; format: cell-based, human; settings: 2 μM, after 1 day, maintained up to 3 days, basal by day 7
Method: (A) RNA was extracted from ESCs [SHEF1] cultured for 7 days in the presence of 2 μM 1M for the days indicated. RT-PCR analyses were performed using primers selective for the genes indicated. (B) ESCs [SHEF1] were treated with 2 μM 1M alone or in combination with 10 μM SB43125 (S) for the days indicated and RT-PCR performed on the extracted RNA. (C) ESCs [SHEF3] were treated with 1M alone or in combination with 100 ng/ml Activin A (A) for the days indicated and RT-PCR performed. (D). ESCs [SHEF1] were treated with 2 μM 1M, or 100 ng/ml ActivinA (A) alone or in combination with 1M for 5 days. Expression of the endoderm markers FoxA2 and HNF4α was analysed by immunofluorescence. The number of percent positive cells averaged from 3 fields of view +/−SD are indicated. Scale bar represents 50 μm. (E) ESCs [SHEF1] were treated with 2 μM 1M, or 100 ng/ml ActivinA (A) alone or in combination with 1M for 5 days. Expression of the DE marker CXCR4 was alaysed by flow cytometry.
Total RNA was isolated and purified using TRIzol Reagent (Invitrogen), following the manufacturer's instructions. All RNA samples were treated with DNase I (Ambion) before cDNA synthesis to eliminate any contaminating genomic DNA. RNA (1 μg) was reverse transcribed into cDNA using Oligo(dT)15 (Promega) and SuperScript II (Invitrogen). Gene-specific PCR was carried out using primers and annealing temperatures outlined in Table 2.

[1] = test system: definitive endoderm derived from human ESCs; experiment: Differentiation of chemically induced DE to hepatocyte-like cells; format: cell-based; settings: DE induction with compound, then HGF/FGF4, then HGF/FGF4/OSM/Dex
From the text: (A) Schematic representation of the differentiation protocol. (B) Images of differentiated cells at stage II (d14) and stage III (d25). (C) RT-PCR expression analyses of RNA prepared from cells at the indicated stages of differentiation, using primers specific to the genes indicated. RNA extracted from human liver was used as a positive control. β-ACTIN was used as a housekeeping gene. (D) Expression of FoxA2 and the early hepatic markers HNF4α, AFP and TTR in cells at stage II and stage III of differentiation were analyzed by immunofluorescence. Scale bar represents 50 μm. (E) Media (1 μl) from stage III (d25) cells, conditioned for 48 hours, and from a media alone (MA) control were analysed by immunoblotting with an antibody to AFP. Purified AFP and media conditioned from HUH7 cells were run as controls. (F) ELISA assay for human Albumin from stage III (d25) media. (G) Differentiation of BIO-derived DE cells to hepatocyte-like cells. SHEF3 ESCs were treated with 2 μM BIO for 5 days to induce differentiation to the DE. ESCs were then cultured under hepatic induction and maturation conditions as outlined in the Experimental Procedures and FIG. 5A. Expression of FOXA2 and the early hepatic markers HNF4α, AFP and TTR in ESCs at stage II and stage III of differentiation were analyzed by immunofluorescence. Scale bar represents 50 μm. […]

[2] = MEF culture, concentration 0.5, 7 days
[3] = MEF culture, concentration 2, 7 days
[4] = mTeSR1, concentration 0.5, 7 days
[5] = mTeSR1, concentration 2, 7 days

O=C1NC(=O)C2=C1c1cn(c3ccccc13)CCOCCOCCOCCOCCn1cc2c2ccccc21 [1M]
Expression of pluripotency markers Tra-1-60 and SSEA4 by flow cytometry (in words) (Human ESCs [SHEF3]; 7 days treatment): dramatic decrease in expression
Tra1-60 % pos (Human ESCs [SHEF3]; MEF culture, concentration 0.5 (unit not given), 7 days): 82.1%
SSEA4 % pos (Human ESCs [SHEF3]; [2]): 90.4%
SSEA4 mean (mean fluorescence intensity) (Human ESCs [SHEF3]; [2]): 5805
Tra1-60 mean (mean fluorescence intensity) (Human ESCs [SHEF3]; [2]): 9403
Tra1-60 % pos (Human ESCs [SHEF3]; MEF culture, concentration 2 (unit not given), 7 days): 18.9%
SSEA4 % pos (Human ESCs [SHEF3]; [3]): 72.9%
SSEA4 mean (mean fluorescence intensity) (Human ESCs [SHEF3]; [3]): 1656
Tra1-60 mean (mean fluorescence intensity) (Human ESCs [SHEF3]; [3]): 1092
Tra1-60 % pos (Human ESCs [SHEF3]; mTeSR1 (feeder-free, Matrigel), concentration 0.5, 7 days): 85.9%
Tra1-60 % pos (Human ESCs [SHEF3]; mTeSR1 (feeder-free, Matrigel), concentration 2, 7 days): 25.6%
SSEA4 % pos (Human ESCs [SHEF3]; [4]): 88.6%
SSEA4 mean (mean fluorescence intensity) (Human ESCs [SHEF3]; [4]): 7578
Tra1-60 mean (mean fluorescence intensity) (Human ESCs [SHEF3]; [4]): 11955
SSEA4 % pos (Human ESCs [SHEF3]; [5]): 52.9%
SSEA4 mean (mean fluorescence intensity) (Human ESCs [SHEF3]; [5]): 465
Tra1-60 mean (mean fluorescence intensity) (Human ESCs [SHEF3]; [5]): 312
NODAL gene expression (ESCs [SHEF1]): increase in NODAL gene expression
Potential of compound-derived DE to form hepatocyte-like cells [1]: has the potential to differentiate into cells with hepatocyte characteristics
